{
  "source": "patent US11202833B2",
  "about": "“Methylglyoxal-scavenging cyclic peptides and their use for the prevention and treatment of diseases associated with elevated methylglyoxal levels” (RUPRECHT-KARLS-UNIVERSITÄT HEIDELBERG, priority 2016, dated 2021)",
  "key": {"[1]": {"design": "species or system NMRI mice", "conditions": "mouse, in vivo", "method": "DOTA coupled peptides were labeled with ^68Ga as described previously (Wischnjow et al., 2016). In short ^68Ga was eluted from the generator into a tube containing 20 nmol of the peptide and 0.5% ascorbic acid in 0.5 M Na-acetate buffer. The mixture was incubated at pH 3.5-4.0 for 10′ at 95° C. while stirring to allow for the ^68Ga-DOTA complex to form. Free ^68Ga was removed using C18 solid phase extraction cartridges (Thermo Scientific, USA) and the product was checked by HPLC (Agilent Technologies, USA) equipped with a radio flow detector. The labeled peptide was injected i.v. into NMRI mice. PET analysis was carried out for 0-1 h and for another 20′ after 2 h while cumulative pictures are shown for 0-20 min, 40-60 min and 120-140 min.\nData was normalized for animal weight and injected dose and pictures and data are given as standardized uptake value [SUV]. For quantitative comparison the area under the curve for the SUV values of the different regions was determined and compared by Student's t-test."}, "[2]": {"test_system": "human serum albumin (HSA)", "experiment": "Competitive inhibition of HSA MG-H1 formation", "assay_type": "biochemical", "conditions": "for prevention of HSA-MG-H1 formation: FIG. 2B, HSA with MG and scavenger", "method": "In short, pure MG-1,1-dimethylacetal was heated in sulphuric acid solution for 1 h and fractionally distilled in a column containing glass helices under reduced pressure. Fractions were analyzed by ^1H and ^13C NMR. […] Two parts urea (8M urea, 0.5 M TrisHCl; pH8.0) were added to the solution and the sample was vortexed. HSA was precipitated by addition of two parts acetonitrile (respective to the final sample/urea mixture) and collected by centrifugation for 10′ at 13000 g. […] The HSA containing pellet was dissolved in 20 mM HCl and the protein content was determined by BCA assay. […] The amount of HSA-MG-H1 adduct was determined by LC-MS. Samples and standard curve were spiked with d3-MG-H1 (Polypeptide Group, San Diego, Calif., USA) and derivatized with Fmoc-Cl. Separation was performed on a C18 column (Hypersil Gold aQ; Thermo Scientific, USA) using a 20 min gradient of 0-100% acetonitrile (0.1% TFA) with the first five minutes diverted to waste. Analysis was carried out on an Exactive Orbitrap MS system (Thermo Scientific, USA). […] The calibration range used for the assay was 0-30 pmol."}, "[3]": {"experiment": "MG scavenging in vitro (MG half-life by HPLC)", "description": "(§1) Scavengers (400 μM) were incubated with MG (200 μM) in 0.1 M phosphate buffer, pH 7.4 at 37° C. The kinetics of the scavenging reaction was followed for 48 h. Samples were frozen in liquid nitrogen and stored at −80° C. until analysis. MG content was quantified by HPLC as described below.\n(§2) In short samples were precipitated with 20% TCA at a ratio of 2/1 and vortex mixed. Internal standards ^13C MG (LC-MS/MS analysis) or 2,3-dimethylquinoxaline (HPLC analysis) and water was added and the sample mixed again. Samples were centrifuged at 13,000 g at 4° C. for 5 min and the supernatant derivatized with 1,2-diaminobenzene in the presence of sodium azide for 4 h at RT. For HPLC based MG analysis the linear gradient was 0-6% acetonitrile in 15 min. The MG-1,2-diaminobenzene adduct 2-methylquinoxaline and the internal standard 2,3-dimethylquinoxaline were detected with a UV monitor at 320 nm and eluted at 12.7 min and 14.2 min, respectively. For LC-MS/MS, samples were analyzed using an ACQUITY UPLC I equipped with a Xevo TQ-S mass spectrometer (Waters, USA). Samples were separated on BEH C18 analytical column (2.1×50 mm, 1.7 μm) fitted with pre-column (2.1×5 mm, 1.7 μm). Solvent A was water+0.1% formic and solvent B was 50% acetonitrile+0.1% formic acid and a linear gradient from 0-100% solvent B, over ten minutes was used with a flow rate of 0.2 ml/min. Injection volume was 1 μl and the column temperature was 20° C. The quinoxaline analytes were detected by electrospray positive ionization-mass spectrometric multiple-reaction monitoring (MRM). The source temperature was 150° C. and the desolvation gas temperature was 350° C. The cone gas and desolvation gas flow rates were 150 and 800 l/hr, respectively. The capillary voltage was 0.5 kV and the cone voltage was 20V. Mass transitions (parent ion >fragment ion; collision energy) and retention time were as follows: MG 145.01>77.10; 24 eV, 5.93 mins; [^13C3]-MG 148.07>77.16; 24 eV, 5.92 mins. The standard curve was in the range of 0-20 pmol and 0-1 nmol for LC MS/MS analysis and HPLC analysis, respectively."}, "[4]": {"experiment": "Serum stability of 177Lu-labelled peptides", "assay_type": "in vitro ADME", "conditions": "human serum, 37° C., after 24 h, 177Lu label", "method": "The cyclic peptide CycK(DOTA)K(Myr)R4E and the linear peptide K(DOTA)K(Myr)R4E were labeled with ^177Lu. In short 20 nmol of peptides were incubated with ^177Lu in 0.4 M Na-acetate buffer (pH 5.0) for 10′ at 95° C. Free ^177Lu was removed by C18 solid phase extraction cartridges, the products eluted with EtOH and checked by radio-HPLC. The radiolabelled peptides were reconstituted in human serum (H4522; Sigma-Aldrich) and incubated in serum at 37° C. for the times indicated. Serum was precipitated by addition of two parts acetonitrile centrifuged for 10 min at 13000 g and the supernatant analysed by HPLC (Agilent Technologies, USA) fitted with a radio flow detector using a 10 min gradient of 0-60% acetonitrile in water (0.1% TFA)."}, "washed human whole blood [5]": {"test_system": "washed human whole blood", "experiment": "Hemolysis", "conditions": "37° C., 30 min", "description": "(§3) Human whole blood was collected into EDTA tubes and centrifuged at 500 g at RT for 5 min. The plasma and buffy coat was removed and saline solution was added to the haematocrit containing pellet to the previous plasma level to wash the erythrocytes. The tube was gently inverted several times and centrifuged again at 500 g. This procedure was repeated until the supernatant remained clear (approx. 4 times). After the last centrifugation step the hematocrit was re-suspended in PBS to reach the original blood volume. […] Haemolysis was compared to saline solution (negative control; 0% haemolysis) and 1% Triton X100 solution (positive control; 100% haemolysis)."}, "[6]": {"test_system": "murine cardiac endothelial cells", "assay_type": "cell-based", "conditions": "mouse, 48 h, 1 mM", "method": "Murine cardiac endothelial cells were seeded on gelatine pre-coated 96 well plates at a density of 5000 cells per well in DMEM (1 g/1 glucose, 5% FCS, 1% Pen/Strep, 1% AmpB, 1% HEPES). On the following day cells were switched to medium containing only 0.1% FCS. […] MTT ((3-(4,5-Dimethylthiazol-2-yl)-2,5-Diphenyltetrazolium Bromide)) solution (50 μl of 2 mg/ml in PBS) was added to the wells and the plate was incubated at 37° C. for 3-4 h. Medium was removed and 200 μl of DMSO was added to lyse cells and solubilise the purple formazan crystals. The plate was incubated for 1 h at room temperature on a shaker and absorbance was measured at 590 nm. Intensity for untreated cells was set to 100%."}, "[7]": {"conditions": "400 µM, pH 7.4", "description": "as §1, §2"}, "washed human whole blood [8]": {"test_system": "washed human whole blood", "description": "as §3"}, "in vivo": {"experiment": "in vivo", "conditions": "C57/B16, mouse, ip", "description": "Blood was collected by cardiac puncture in an aesthetised mice at time points 10′, 30′, 1 h, 4 h, 8 h and 24 h into tubes containing EDTA. Plasma was collected after centrifugation at 3000 g for 5′ at room temperature and frozen in liquid nitrogen.\nPlasma was acidified with 5% TFA (5 μl/30 μl), acetonitrile (60 μl) was added and the tubes vortexed. Another 120 μl of acetonitrile were added and samples were ultrasonicated for 5 min. Samples were spun for 20 min at 13000 g. The supernatant (180 μl) was collected, mixed with 180 μl of water and freeze dried. The sample was resuspended in 30 μl of a mixture of acetonitrile/water (ratio of 1/1) containing 0.1% TFA. The samples was analysed by LC MS. Concentration was calculated by normalisation for the internal standard in combination with linear regression of a standard curve. Concentration/time-points were fitted using a one phase exponential decay model to determine the half-life of the drug."}, "[9]": {"conditions": "Kinsky et al., 2016; cited from earlier work"}},
  "note": "Numbered stars: 1 amine (or outer) side, 2 acyl side, 3 side chain; on linkers, the order of the positions; unused ones are H or OH. Bridge positions count the residues as written; N and C are the ends. Side chains are listed from the residue outwards. Peptide text beside a SMILES is read from it. * marks the point of attachment. ξ: configuration not given here. DOTA = O=C(O)CN1CCN(CC(=O)O)CCN(CC(=O)*)CCN(CC(=O)O)CC1; C16 diacid = O=C(O)CCCCCCCCCCCCCCC(=O)*; ξγGlu = O=C(O)C(CCC(=O)[*:2])N[*:1]; Myristoyl = CCCCCCCCCCCCCC(=O)*",
  "data": [
    {"molecule": "N=C(N)NCCC[C@@H]1NC(=O)[C@H](CCCNC(=N)N)NC(=O)[C@H](CCCNC(=N)N)NC(=O)[C@H](CCCNC(=N)N)NC(=O)[C@H](CCCCNC(=O)CN2CCN(CC(=O)O)CCN(CC(=O)O)CCN(CC(=O)O)CC2)NC(=O)CC[C@@H](C(=O)O)NC1=O", "note": "(68Ga complex, metal not drawn) [CycK(DOTA)R4E] (K(DOTA)RRRRE-OH; lactam N-6)", "values": [
      {"measurement": "completely excreted after", "setting": "[1]", "result": "≤ 140", "unit": "min"},
      {"measurement": "excreted almost completely within/after", "setting": "[1]; iv", "result": "≤ 20", "unit": "min"}
    ]},
    {"molecule": "N=C(N)NN", "note": "[Agd, aminoguanidine]", "values": [
      {"measurement": "prevention of HSA-MG-H1 formation", "setting": "[2]", "result": "tended to be more efficient"}
    ]},
    {"molecule": "NCCC(=O)N[C@@H](Cc1cnc[nH]1)C(=O)O", "note": "[Car, carnosine]", "values": [
      {"measurement": "prevention of HSA-MG-H1 formation", "setting": "[2]", "result": "nor did it prevent"},
      {"measurement": "MG scavenging (in words)", "setting": "[3]", "result": "neither scavenged MG"}
    ]},
    {"molecule": "CN(CC(=O)O)C(=N)N", "note": "[Cre, creatine]", "values": [
      {"measurement": "MG scavenging (in words)", "setting": "[3]", "result": "fastest of the endogenous MG scavengers tested"}
    ]},
    {"molecule": "CCCCCCCCCCCCCC(=O)NCCCC[C@@H]1NC(=O)[C@H](CCCCNC(=O)CN2CCN(CC(=O)O)CCN(CC(=O)O)CCN(CC(=O)O)CC2)NC(=O)CC[C@@H](C(=O)O)NC(=O)[C@H](CCCNC(=N)N)NC(=O)[C@H](CCCNC(=N)N)NC(=O)[C@H](CCCNC(=N)N)NC(=O)[C@H](CCCNC(=N)N)NC1=O", "note": "[CycK(DOTA)K(Myr)R4E] (K(DOTA)K(Myristoyl)RRRRE-OH; lactam N-7)", "values": [
      {"measurement": "SUV in the bladder", "setting": "[1]", "result": "lower"},
      {"measurement": "SUV in the kidney", "setting": "[1]", "result": "similar"},
      {"measurement": "SUV values in the heart, muscle and liver", "setting": "[1]", "result": "higher"},
      {"measurement": "accumulation in the kidneys", "setting": "[1]", "result": "strong accumulation in the kidneys"},
      {"measurement": "circulates for", "setting": "[1]", "result": "over 140 min"},
      {"measurement": "peptide remaining", "setting": "[4]", "result": 86.16, "unit": "%"}
    ]},
    {"molecule": "CCCCCCCCCCCCCC(=O)NCCCC[C@@H]1NC(=O)CC[C@@H](C(=O)O)NC(=O)[C@H](CCCNC(=N)N)NC(=O)[C@H](CCCNC(=N)N)NC(=O)[C@H](CCCNC(=N)N)NC(=O)[C@H](CCCNC(=N)N)NC1=O", "note": "[CycK(Myr)R4E] (K(Myristoyl)RRRRE-OH; lactam N-6)", "values": [
      {"measurement": "concentration above which significant hemolysis is displayed", "setting": "washed human whole blood [5]", "result": "over 50 μM"}
    ]},
    {"molecule": "N=C(N)NCCC[C@@H]1NC(=O)[C@H](CCCNC(=N)N)NC(=O)[C@H](CCCNC(=N)N)NC(=O)[C@H](CCCNC(=N)N)NC(=O)[C@H](CCCCNC(=O)CCC(NC(=O)CCCCCCCCCCCCCCC(=O)O)C(=O)O)NC(=O)CC[C@@H](C(=O)O)NC1=O", "note": "(stereo partly shown) [CycK(e-Hdd)R4E] (K([ξγGlu-C16 diacid])RRRRE-OH; lactam N-6)", "values": [
      {"measurement": "prevention of modification of HSA with MG-H1", "setting": "[2]; FIG. 9, peptides 400 μM, HSA 400 μM, MG 200 μM", "result": "significantly prevented"},
      {"measurement": "viability relative to untreated cells", "setting": "[6]", "result": 75, "unit": "%"},
      {"measurement": "MG t1/2", "setting": "[7]", "result": 1.1, "unit": "h"},
      {"measurement": "hemolysis (in words)", "setting": "washed human whole blood [8]", "result": "does not cause hemolysis even at high concentrations"},
      {"measurement": "half-life", "setting": "in vivo", "result": "~480", "unit": "min"}
    ]},
    {"molecule": "CCCCCCCCCCCCCC(=O)NCCCC[C@H](NC(=O)[C@@H](N)CCCCNC(=O)CN1CCN(CC(=O)O)CCN(CC(=O)O)CCN(CC(=O)O)CC1)C(=O)N[C@@H](CCCNC(=N)N)C(=O)N[C@@H](CCCNC(=N)N)C(=O)N[C@@H](CCCNC(=N)N)C(=O)N[C@@H](CCCNC(=N)N)C(=O)N[C@@H](CCC(=O)O)C(=O)O", "note": "[K(DOTA)K(Myr)R4E] (H-K(DOTA)K(Myristoyl)RRRRE-OH; N-terminus assumed)", "values": [
      {"measurement": "peptide remaining", "setting": "[4]", "result": 33.4, "unit": "%"}
    ]},
    {"molecule": "CN(C)C(=N)N=C(N)N", "note": "[Met, metformin]", "values": [
      {"measurement": "prevention of HSA-MG-H1 formation", "setting": "[2]", "result": "did not significantly prevent"},
      {"measurement": "MG-metformin adduct concentration in the urine", "setting": "[9]", "result": "up to 4 μM"}
    ]},
    {"molecule": "Cc1ncc(CO)c(CN)c1O", "note": "[Pyr, pyridoxamine]", "values": [
      {"measurement": "prevention of HSA-MG-H1 formation", "setting": "[2]", "result": "did not significantly prevent"}
    ]}
  ]
}
